Measurements taken from patent US20230014445A1, “ALLOSTERIC CHROMENONE INHIBITORS OF PHOSPHOINOSITIDE 3-KINASE (PI3K) FOR THE TREATMENT OF DISEASE” (Petra Pharma Corporation, priority 2021, published 2023).
Like-named read-outs stand apart in the source and are kept apart here. One block for each compound: values may come before it.

Key:
[1] = biological target: T1, human full length PIK3KA H1047R mutant (p110α/p85α complex) (Homo sapiens, UniProt P42336, H1047R); assay: PI3K-Alpha Kinase (PIK3CA) biochemical activity, H1047R mutant (ADP-Glo); settings: 20 uM ATP
T1 construct: Recombinant, catalytically active human full length PIK3KA Wild-type and H1047R mutant were purchased; 6xHis (N); purchased EMD Millipore Sigma 14-792M
T1 sequence (P42336 whole entry H1047R): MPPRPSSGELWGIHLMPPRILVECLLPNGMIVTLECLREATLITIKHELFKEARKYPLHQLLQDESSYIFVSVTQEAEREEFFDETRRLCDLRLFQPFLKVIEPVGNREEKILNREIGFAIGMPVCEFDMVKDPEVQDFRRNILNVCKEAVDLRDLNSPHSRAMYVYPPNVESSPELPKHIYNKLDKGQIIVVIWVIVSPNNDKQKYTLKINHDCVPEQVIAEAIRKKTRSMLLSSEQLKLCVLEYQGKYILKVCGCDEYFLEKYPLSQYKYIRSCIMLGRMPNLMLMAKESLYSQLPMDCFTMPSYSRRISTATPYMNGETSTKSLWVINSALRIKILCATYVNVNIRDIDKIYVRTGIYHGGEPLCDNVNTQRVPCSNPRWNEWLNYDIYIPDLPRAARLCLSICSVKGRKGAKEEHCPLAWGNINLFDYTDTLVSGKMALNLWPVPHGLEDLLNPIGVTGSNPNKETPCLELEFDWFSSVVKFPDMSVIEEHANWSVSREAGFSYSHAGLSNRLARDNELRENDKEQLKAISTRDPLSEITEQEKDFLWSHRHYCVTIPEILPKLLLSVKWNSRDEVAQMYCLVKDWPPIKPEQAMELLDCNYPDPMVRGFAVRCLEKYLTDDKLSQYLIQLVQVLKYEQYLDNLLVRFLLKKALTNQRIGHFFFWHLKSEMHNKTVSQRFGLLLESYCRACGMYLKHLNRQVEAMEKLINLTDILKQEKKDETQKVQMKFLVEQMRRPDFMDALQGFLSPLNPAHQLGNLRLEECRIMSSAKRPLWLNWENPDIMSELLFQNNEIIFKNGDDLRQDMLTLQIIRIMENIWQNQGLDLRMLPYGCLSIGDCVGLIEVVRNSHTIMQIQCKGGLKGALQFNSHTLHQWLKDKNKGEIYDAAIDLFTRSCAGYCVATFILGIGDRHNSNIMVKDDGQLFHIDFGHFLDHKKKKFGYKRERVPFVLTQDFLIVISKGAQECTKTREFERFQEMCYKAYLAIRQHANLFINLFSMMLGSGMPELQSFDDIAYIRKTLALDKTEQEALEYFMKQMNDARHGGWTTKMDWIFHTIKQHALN
T1 sequence (P27986 whole entry partner): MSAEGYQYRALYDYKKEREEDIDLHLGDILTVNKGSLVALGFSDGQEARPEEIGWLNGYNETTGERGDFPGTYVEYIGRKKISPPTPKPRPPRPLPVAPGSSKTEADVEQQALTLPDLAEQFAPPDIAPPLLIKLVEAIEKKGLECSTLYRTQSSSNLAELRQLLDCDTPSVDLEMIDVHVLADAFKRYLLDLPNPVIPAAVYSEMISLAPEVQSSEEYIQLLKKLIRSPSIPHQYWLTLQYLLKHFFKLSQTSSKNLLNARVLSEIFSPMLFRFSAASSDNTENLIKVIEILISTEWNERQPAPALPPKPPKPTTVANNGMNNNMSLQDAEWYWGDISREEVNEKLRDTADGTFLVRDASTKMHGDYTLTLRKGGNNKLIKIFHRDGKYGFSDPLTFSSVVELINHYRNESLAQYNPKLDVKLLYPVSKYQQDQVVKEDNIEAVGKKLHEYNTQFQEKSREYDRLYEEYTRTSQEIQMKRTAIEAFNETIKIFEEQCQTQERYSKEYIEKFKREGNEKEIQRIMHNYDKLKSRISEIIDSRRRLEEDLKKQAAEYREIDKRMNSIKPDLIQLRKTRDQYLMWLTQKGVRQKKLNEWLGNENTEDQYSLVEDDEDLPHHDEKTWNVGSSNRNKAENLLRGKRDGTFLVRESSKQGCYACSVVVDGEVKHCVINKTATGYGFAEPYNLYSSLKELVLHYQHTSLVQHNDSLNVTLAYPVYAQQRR
Outline: (§1)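 ADP formation, measured by ADP-Glo luminescence after reaction to about 10% ATP conversion at 27° C., gives 10-point 4-parameter IC50 curves normalized to no-enzyme and DMSO controls. Lipid substrate was PIP2diC8 or Soy PI at 50 uM, with 20 uM ATP. WT or H1047R p110α/p85α complex (1-5 nM) was preincubated 1 h with compound.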

[2] = biological target: T2, human full length PIK3KA Wild-type (p110α/p85α complex) (Homo sapiens, UniProt P42336); assay: PI3K-Alpha Kinase (PIK3CA) biochemical activity, wild-type (ADP-Glo); settings: 20 uM ATP
T2 construct: Recombinant, catalytically active human full length PIK3KA Wild-type and H1047R mutant were purchased; 6xHis (N); purchased EMD Millipore Sigma 14-602M
Outline: as §1

[3] = biological target: PI3K-α (PIK3CA) in MDA-MB-453 cells (Homo sapiens, UniProt P42336); assay: PI3K-Alpha Kinase (PIK3CA) activity in vitro cell based assay (AlphaLisa SureFire)
Chain of PI3K-α (PIK3CA) in MDA-MB-453 cells (P42336 whole entry): as the sequence (P42336 whole entry H1047R) above, with R1047H counted along it
Chain of PI3K-α (PIK3CA) in MDA-MB-453 cells (P27986 2-724, further chain): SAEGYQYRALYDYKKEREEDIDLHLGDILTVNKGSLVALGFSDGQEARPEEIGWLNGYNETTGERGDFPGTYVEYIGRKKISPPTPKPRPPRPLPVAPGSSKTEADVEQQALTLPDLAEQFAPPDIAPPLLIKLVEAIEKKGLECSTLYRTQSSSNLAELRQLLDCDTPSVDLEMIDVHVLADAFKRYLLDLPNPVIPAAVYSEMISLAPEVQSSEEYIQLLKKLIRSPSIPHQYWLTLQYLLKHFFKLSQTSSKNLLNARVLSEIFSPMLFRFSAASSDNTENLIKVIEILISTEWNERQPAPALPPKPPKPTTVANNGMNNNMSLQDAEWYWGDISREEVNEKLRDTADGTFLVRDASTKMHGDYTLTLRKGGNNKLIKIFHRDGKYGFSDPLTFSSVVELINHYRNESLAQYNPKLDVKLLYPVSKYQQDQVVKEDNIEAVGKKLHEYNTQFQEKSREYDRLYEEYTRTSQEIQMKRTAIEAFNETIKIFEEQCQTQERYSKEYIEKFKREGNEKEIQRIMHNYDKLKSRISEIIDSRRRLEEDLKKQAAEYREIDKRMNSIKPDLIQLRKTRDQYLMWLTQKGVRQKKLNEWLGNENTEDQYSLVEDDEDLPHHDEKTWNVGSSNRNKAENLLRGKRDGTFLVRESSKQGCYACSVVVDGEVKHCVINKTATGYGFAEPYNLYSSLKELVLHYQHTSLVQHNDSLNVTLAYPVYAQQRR
Method: PI3K-Alpha Kinase (PIK3CA) Activity In Vitro Cell Based Assay and Determining IC50 Values for Inhibitors
The MDA-MB-453 (ATCC-HTB-131) cell line was obtained from the American Type Culture Collection (Manassas, Va.). Cells were maintained in Dulbecco's Modified Eagle Media (DMVEM, Gibco 11965-092) supplemented with 10% Fetal Bovine Serum, heat inactivated (FBS HI, Gibco 10082-147), 1× non-essential amino acids (NEAA, Gibco 11140-050), and 1 mM sodium pyruvate (Gibco 11360-070). Cultures were maintained in a humidified incubator at 37° C. under […].
For compound testing in 0% FBS, MDA-MB-453 cells were seeded at a density of 1.5×10^4 cells per well in white 384-well plates in 20 μl of Minimum Essential Media (MEM) assay media with 1×NEAA, 1 mM sodium pyruvate, and 1 μg/mL human insulin (Sigma I9278). Compounds dissolved in 10 mM stock solutions in DMSO were serially diluted 1:3 in DMSO to generate a 10-point dilution series and plated using an acoustic liquid handler system (Echo 550 Series Liquid Handler, Labcyte). A 5× intermediate compound dilution plate in MEM with 1×NEAA and 1 mM sodium pyruvate (150 μM starting compound concentration in 1.5% DMSO) was then prepared. Five μl of the intermediate serially diluted compounds were added to the cell plate to final concentrations ranging from […] in 0.3% DMSO. 0.3% DMSO alone was used to establish the maximum (MAX) signal and GDC-0032 at a final concentration of 1 μM was used as a reference compound for the minimum (MIN) signal. After 3 hours treatment, the medium was removed, and the cells lysed in 10 μL of 1× SureFire Lysis buffer with shaking for 10 minutes at room temperature. The Acceptor Mix (Reaction Buffer 1+Reaction Buffer 2+Activation Buffer+SureFire Ultra Acceptor Beads) was prepared by diluting Activation buffer 25-fold in combined Reaction Buffer 1 and Reaction Buffer 2. The Acceptor beads were diluted 50-fold in the combined Reaction Buffers. Five μL of Acceptor Mix was added to each well, the plate was sealed and covered with foil and incubated for 1 hour at room temperature. The Donor Mix (dilution buffer+SureFire Ultra Donor Beads) was prepared by diluting Donor Beads 50-fold in dilution buffer. Five μL of the Donor Mix was added to each well and the plate sealed and covered with foil and incubated for 1 hour at room temperature in the dark. The plates were read on a Neo2 plate reader instrument from Biotek using standard AlphaLisa settings.
Compounds were tested in duplicate and the average % inhibition at each compound concentration was used to generate a single dose response curve. The data were processed using the Genedata-Screener tool. Relative IC50 values were determined using luminescence units by calculating percent inhibition with respect to the in-plate “MIN” (GDC-0032 reference control) and “MAX” (DMSO) controls. The data was analyzed using a 4-parameter nonlinear logistic equation (four-parameter logistic concentration-response curve):
Y=bottom+[(top−bottom)/1+(X/IC50)slope]
where Y=% inhibition, X=concentration of inhibitor, bottom=minimum value of y attained by curve-fit, top=maximum value of y attained by curve-fit and slope=steepness of curve at the IC50.
% Inhibition=[(signal at X−median Min)/(median Max−median Min)]×100
IC50: concentration of compound that reduces a given response (ligand binding, enzyme response) by 50%. Relative IC50: concentration giving half the compound's maximum response.
For IC50 values shown in Table B, “A” means IC50<50 nM; “B” means IC50 ranging between 50 nM and 100 nM; “C” means IC50 ranging between 100 nM and 500 nM; “D” means IC50>500 nM.

[4] = 0% FBS, 3 hours treatment, read-out: PI3K-α (PIK3CA) in vitro cell based assay IC50
[5] = read-out: PI3K-α (PIK3CA) in vitro cell based assay IC50, 0% FBS, 3 hours treatment

IC50 ([1]; PIP2diC8 lipid substrate): > 10000 nM | IC50 ([2]; PIP2diC8 lipid substrate): > 10000 nM | IC50 [3, 4]: > 500 nM
SMILES: COc1ncc(-c2cc(=O)c3cc(C)cc(C(C)Nc4ccccc4C(=O)O)c3o2)cn1 (single isomer, unassigned) [Example 5, 2-[1-[2-(2-Methoxypyrimidin-5-yl)-6-methyl-4-oxo-chromen-8-yl]ethylamino]benzoic acid]

SMILES: Cc1cc(C(C)Nc2ccccc2C(=O)O)c2oc(-c3cncc(F)c3)cc(=O)c2c1 (single isomer, unassigned) [Example 44, 2-[1-[2-(5-Fluoro-3-pyridyl)-6-methyl-4-oxo-chromen-8-yl]ethylamino]benzoic acid, Isomer 2,2,2,2-trifluoroacetic acid]
IC50 ([1]; Soy PI lipid substrate): < 500 nM | IC50 ([2]; Soy PI lipid substrate): 1000 to 5000 nM | IC50 [3, 5]: < 50 nM

SMILES: CC(Nc1ccccc1C(=O)O)c1cc(F)cc2c(=O)cc(-c3ccccn3)oc12 (single isomer, unassigned) [Example 46, 2-[1-[6-Fluoro-4-oxo-2-(2-pyridyl)chromen-8-yl]ethylamino]benzoic acid, Isomer 1,2,2,2-trifluoroacetic acid]
IC50 ([1]; Soy PI lipid substrate): < 500 nM | IC50 ([2]; Soy PI lipid substrate): 5000 to 10000 nM | IC50 [3, 5]: < 50 nM

SMILES: Cc1cc(C(C)Nc2ccccc2C(=O)O)c2oc(-c3cnn(C(F)F)c3)cc(=O)c2c1 (single isomer, unassigned) [Example 52, 2-[1-[2-[1-(Difluoromethyl)pyrazol-4-yl]-6-methyl-4-oxo-chromen-8-yl]ethylamino]benzoic acid, Isomer 2,2,2,2-trifluoroacetic acid]
IC50 ([1]; Soy PI lipid substrate): < 500 nM | IC50 ([2]; Soy PI lipid substrate): 1000 to 5000 nM | IC50 [3, 5]: 50 to 100 nM

SMILES: CC(Nc1ccccc1C(=O)O)c1cc(F)cc2c(=O)cc(-c3cnn(-c4cccnc4)c3)oc12 (single isomer, unassigned) [Example 55, 2-[1-[6-Fluoro-4-oxo-2-[1-(3-pyridyl)pyrazol-4-yl]chromen-8-yl]ethylamino]benzoic acid, Isomer 1,2,2,2-trifluoroacetic acid]
IC50 ([1]; Soy PI lipid substrate): < 500 nM | IC50 ([2]; Soy PI lipid substrate): 5000 to 10000 nM | IC50 [3, 5]: 100 to 500 nM

SMILES: COc1ccc(-c2oc3c(C(C)Nc4ccccc4C(=O)O)cc(C)cc3c(=O)c2C)cn1 (single isomer, unassigned) [Example 65, 2-[1-[2-(6-Methoxy-3-pyridyl)-3,6-dimethyl-4-oxo-chromen-8-yl]ethylamino]benzoic acid, Isomer 1,2,2,2-trifluoroacetic acid]
IC50 ([1]; Soy PI lipid substrate): < 500 nM | IC50 ([2]; Soy PI lipid substrate): 1000 to 5000 nM | IC50 [3, 5]: < 50 nM

SMILES: COc1ccccc1-n1cc(-c2oc3c(C(C)Nc4ccccc4C(=O)O)cc(C)cc3c(=O)c2C)cn1 (single isomer, unassigned) [Example 70, 2-[1-2-[1-(2-Methoxyphenyl)pyrazol-4-yl]-3,6-dimethyl-4-oxo-chromen-8-yl]ethylamino]benzoic acid, Isomer 1,2,2,2-trifluoroacetic acid]
IC50 ([1]; Soy PI lipid substrate): 1000 to 5000 nM | IC50 ([2]; Soy PI lipid substrate): 1000 to 5000 nM | IC50 [3, 5]: < 50 nM

SMILES: COc1ncc(-n2cc(-c3oc4c(C(C)Nc5ccccc5C(=O)O)cc(C)cc4c(=O)c3C)cn2)cn1 (single isomer, unassigned) [Example 72, 2-[1-[2-[1-(2-Methoxypyrimidin-5-yl)pyrazol-4-yl]-3,6-dimethyl-4-oxo-chromen-8-yl]ethylamino]benzoic acid, Isomer 1,2,2,2-trifluoroacetic acid]
IC50 ([1]; Soy PI lipid substrate): < 500 nM | IC50 ([2]; Soy PI lipid substrate): 1000 to 5000 nM | IC50 [3, 5]: 50 to 100 nM

SMILES: Cc1cc(C(C)Nc2ccccc2C(=O)O)c2oc(-c3cnn(-c4ccc(C#N)cc4)c3)c(C)c(=O)c2c1 (single isomer, unassigned) [Example 73, 2-[1-[2-[1-(4-Cyanophenyl)pyrazol-4-yl]-3,6-dimethyl-4-oxo-chromen-8-yl]ethylamino]benzoic acid, Isomer 1,2,2,2-trifluoroacetic acid]
IC50 ([1]; Soy PI lipid substrate): < 500 nM | IC50 ([2]; Soy PI lipid substrate): 500 to 1000 nM | IC50 [3, 5]: 50 to 100 nM

SMILES: Cc1cc(C(C)Nc2ccccc2C(=O)O)c2oc(-c3cnn(-c4cccc(C#N)c4)c3)c(C)c(=O)c2c1 (single isomer, unassigned) [Example 74, 2-[1-[2-[1-(3-Cyanophenyl)pyrazol-4-yl]-3,6-dimethyl-4-oxo-chromen-8-yl]ethylamino]benzoic acid, Isomer 1,2,2,2-trifluoroacetic acid]
IC50 ([1]; Soy PI lipid substrate): < 500 nM | IC50 ([2]; Soy PI lipid substrate): 500 to 1000 nM | IC50 [3, 5]: < 50 nM

SMILES: COc1ccc(-n2cc(-c3cc(=O)c4cc(C)cc(C(C)Nc5ccccc5C(=O)O)c4o3)nn2)cc1OC (single isomer, unassigned) [Example 133, 2-[1-[2-[1-(3,4-Dimethoxyphenyl)triazol-4-yl]-6-methyl-4-oxo-chromen-8-yl]ethylamino]benzoic acid, Isomer 2,2,2,2-trifluoroacetic acid]
IC50 [3, 5]: 100 to 500 nM

SMILES: COc1ccc(-n2nncc2-c2cc(=O)c3cc(C)cc(C(C)Nc4ccccc4C(=O)O)c3o2)cc1OC (single isomer, unassigned) [Example 134, 2-[1-[2-[3-(3,4-Dimethoxyphenyl)triazol-4-yl]-6-methyl-4-oxo-chromen-8-yl]ethylamino]benzoic acid, Isomer 2,2,2,2-trifluoroacetic acid]
IC50 [3, 5]: > 500 nM

IC50 [3, 4]: < 50 nM
SMILES: Cc1cc(C(C)Nc2ccccc2C(=O)O)c2oc(-c3cnn(C)c3)c(C)c(=O)c2c1 (single isomer, unassigned; isomer 1) [Example 136, 2-[1-[3,6-Dimethyl-2-(1-methylpyrazol-4-yl)-4-oxo-chromen-8-yl]ethylamino]benzoic acid, Isomer 1]

IC50 [3, 4]: < 50 nM
SMILES: Cc1cc(C(C)Nc2ccc(Cl)nc2C(=O)O)c2oc(-c3cncc(F)c3)c(C)c(=O)c2c1 (single isomer, unassigned; isomer 1) [Example 138, 6-Chloro-3-[1-[2-(5-fluoro-3-pyridyl)-3,6-dimethyl-4-oxo-chromen-8-yl]ethylamino]pyridine-2-carboxylic acid, Isomer 1]

SMILES: Cc1cc(C(C)Nc2cccnc2C(=O)O)c2oc(-c3cccc(C(F)F)n3)c(C)c(=O)c2c1 (single isomer, unassigned; isomer 1) [Example 139, 3-[1-[2-[6-(Difluoromethyl)-2-pyridyl]-3,6-dimethyl-4-oxo-chromen-8-yl]ethylamino]pyridine-2-carboxylic acid; 2,2,2-trifluoroacetic acid, Isomer 1]
IC50 [3, 5]: 100 to 500 nM

IC50 [3, 4]: 50 to 100 nM
SMILES: Cc1cc(C(C)Nc2cccc(F)c2C(=O)O)c2oc(-c3ccccn3)c(C)c(=O)c2c1 (single isomer, unassigned; isomer 1) [Example 140, 2-[1-[3,6-Dimethyl-4-oxo-2-(2-pyridyl)chromen-8-yl]ethylamino]-6-fluoro-benzoic acid, Isomer 1]

IC50 [3, 4]: < 50 nM
SMILES: Cc1cc(C(C)Nc2ccc(Cl)nc2C(=O)O)c2oc(-c3cccc(C(F)F)n3)c(C)c(=O)c2c1 (single isomer, unassigned; isomer 1) [Example 141, 6-Chloro-3-[1-[2-[6-(difluoromethyl)-2-pyridyl]-3,6-dimethyl-4-oxo-chromen-8-yl]ethylamino]pyridine-2-carboxylic acid, Isomer 1]
